Reference: patent US7056892B2, “Glucopyranosyloxypyrazole derivatives, medicinal compositions containing the same and intermediates in the production thereof” (Kissei Pharmaceutical Co., Ltd., priority 1999, dated 2006)

How the values were obtained:
normal mice = settings: J. Med. Chem., Vol. 39, pp. 3920–3928 (1996); cited from earlier work
human SGLT2 = target: T1, human SGLT2 (Homo sapiens, UniProt P31639, I433V); experiment: Assay for inhibitory effect on human SGLT2 activity (uptake of methyl-α-D-glucopyranoside in COS-7 cells expressing transiently human SGLT2); assay type: cell-based
T1 construct: expressed in transfected cells; host or cells: COS-7 cells (RIKEN CELL BANK RCB0539), transient electroporation of plasmid KL29
T1 sequence (P31639 1-672 I433V): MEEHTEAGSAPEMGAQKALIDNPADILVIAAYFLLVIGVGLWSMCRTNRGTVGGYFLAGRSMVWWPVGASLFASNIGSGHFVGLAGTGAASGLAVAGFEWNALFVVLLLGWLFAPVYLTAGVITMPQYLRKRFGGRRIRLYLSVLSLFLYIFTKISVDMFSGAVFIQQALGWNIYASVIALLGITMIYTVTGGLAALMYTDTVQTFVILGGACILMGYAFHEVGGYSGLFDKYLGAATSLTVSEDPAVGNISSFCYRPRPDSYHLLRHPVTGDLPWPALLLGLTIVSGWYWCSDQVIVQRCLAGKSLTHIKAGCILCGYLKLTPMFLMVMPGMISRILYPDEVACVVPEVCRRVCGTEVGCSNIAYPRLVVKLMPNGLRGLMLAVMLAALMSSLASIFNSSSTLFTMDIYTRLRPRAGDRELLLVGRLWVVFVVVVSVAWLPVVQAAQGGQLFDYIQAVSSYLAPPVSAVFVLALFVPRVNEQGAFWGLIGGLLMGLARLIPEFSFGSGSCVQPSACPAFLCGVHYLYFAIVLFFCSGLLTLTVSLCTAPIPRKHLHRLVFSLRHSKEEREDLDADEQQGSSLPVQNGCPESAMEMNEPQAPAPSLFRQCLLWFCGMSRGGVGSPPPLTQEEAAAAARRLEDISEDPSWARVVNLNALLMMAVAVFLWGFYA
Description: Assay for Inhibitory Effect on Human SGLT2 Activity
1) Construction of the Plasmid Vector Expressing Human SGLT2
Preparation of the cDNA library for PCR amplification was performed by reverse transcription of a total RNA deprived from human kidney (Ori gene) with oligo dT as the primer, using Super Script preamplification system (Gibco-BRL: LIFE TECHNOLOGIES). The DNA fragment coding for human SGLT2 was amplified by the PCR reaction, in which the human kidney cDNA library described above was used as the template and the following oligo nucleotides 0702F and 0712R, presented as sequence number 1 and 2 respectively, were used as the primers. The amplified DNA fragment was ligated into pCR (Invitrogen), a vector for cloning, according to standard method of the kit. The Escherichia coli HB101 was transformed according to usual method and then selection of the transformants was performed on the LB agar medium containing 50 μg/mL of kanamycin. […] After plasmid DNA was extracted and purified from this transformant, the base sequence of the DNA fragment inserted at the multi-cloning sites of the vector pcDNA3.1 (−) Myc/His-B was analyzed. […]

SD rats [1] = experiment: Assay for the facilitatory effect on urinary glucose excretion, Method B (intravenous); assay type: in vivo, rat; settings: oral glucose 2 g/kg, 24 hours, per 200 g of body weight
Description: (§1) Assay for the Facilitatory Effect on Urinary Glucose Excretion
As experimental animal, overnight fasted SD rats (SLC, male, 7 weeks of age, 180–220 g) were used. A test compound (10 mg) was suspended or dissolved in 300 μL of ethanol and dissolved by adding of 1.2 mL of polyethylene glycol 400 and 1.5 mL of saline and then 3.3 mg/mL solution was prepared. A part of this solution was diluted with the solvent (saline:polyethylene glycol 400:ethanol=5:4:1) and then each solution at the concentration of 3.3, 0.33 or 0.033 (mg/mL) was prepared. After the body weights of the rats were measured, the test compound solution was administrated by intravenous injection to the tail vein at the dose of 3 mL/kg (10, 1 and 0.1 mg/kg). For the control, just only the solvent (saline:polyethylene glycol 400:ethanol=5:4:1) was administrated by intravenous injection to the tail vein at the dose of 3 mL/kg. Immediately after this intravenous administration, 200 g/L glucose solution was orally administered at the dose of 10 mL/kg (2 g/kg). The intravenous administration was performed with 26G needle and 1 mL syringe. The oral administration was performed with gastric tube for rat and 2.5 mL syringe. The head count in one group was 3. Collection of urine was performed in metabolic cage after the glucose administration was finished. The sampling time for collection of urine was 24 hours after the glucose administration. After collection of urine was finished, the urine volume was recorded and the urinary glucose concentration was measured. The glucose concentration was measured with a kit for laboratory test: Glucose B-Test WAKO (Wako Pure Chemical Industries, Ltd.). The amount of urinary glucose excretion in 24 hours per 200 g of body weight was calculated from urine volume, urinary glucose concentration and body weight.

ICR mice [2] = experiment: Acute toxicity test, Method B (subcutaneous); assay type: in vivo; settings: 600 mg/kg subcutaneous, male ICR mice, 5 animals, observation until 24 hours
Description: By adding of the solvent (saline:polyethylene glycol 400:ethanol=5:4:1) to the test compound, 200 mg/mL suspension was prepared. As experimental animal, male 5 weeks of age ICR mice fasted for 4 hours (Clea Japan, 26–33 g, 5 animals in each group) were used. The test suspension described above was subcutaneously administrated to the experimental animals described above at the dose of 3 mL/kg (600 mg/kg) and then observation was performed until 24 hours after the administration.

ICR mice [3] = experiment: Acute toxicity test, Method A (oral); assay type: in vivo; settings: 1000 mg/kg oral, male ICR mice, 5 animals, observation until 24 hours
Description: By adding of 0.5% sodium carboxymethylcellulose solution to the test compound, 100 mg/mL suspension was prepared. As experimental animal, male 6–7 weeks of age ICR mice fasted for 4 hours (Clea Japan, 28–33 g, 5 animals in each group) were used. The test suspension described above was orally administrated to the experimental animals described above at the dose of 10 mL/kg (1000 mg/kg) and then observation was performed until 24 hours after the administration.

SD rats [4] = experiment: Assay for the facilitatory effect on urinary glucose excretion, Method A (subcutaneous); assay type: in vivo, rat; settings: oral glucose 2 g/kg, 4 hours, per 1 body
Description: as §1
As experimental animal, overnight fasted SD rats (SLC, male, 5 weeks of age, 120–150 g) were used. Test compound (25.40 mg) was suspended in 762 μL of ethanol and dissolved by adding of 3.048 mL of polyethylene glycol 400 and 3.81 mL of saline and then 3.3 mg/mL solution was prepared. A part of this solution was diluted with the solvent (saline:polyethylene glycol 400:ethanol=5:4:1) and then each solution at the concentration of 3.3, 1 or 0.33 (mg/mL) was prepared. Each of these solutions was subcutaneously administrated to the rats at the dose of 3 mL/kg (10, 3 and 1 mg/kg). For the control, just only the solvent (saline:polyethylene glycol 400:ethanol=5:4:1) was subcutaneously administrated at the dose of 3 mL/kg. Immediately after this subcutaneous administration, 200 g/L glucose solution was orally administered at the dose of 10 mL/kg (2 g/kg). The subcutaneous administration was performed with 26G needle and 1 mL syringe. The oral administration was performed with gastric tube for rat and 2.5 mL syringe. The head count in one group was 3. Collection of urine was performed in metabolic cage after these administrations were finished. The sampling time for collection of urine was 4 hours after the glucose administration. After collection of urine was finished, the urine volume was recorded and the urinary glucose concentration was measured. The glucose concentration was measured with a kit for laboratory test: Glucose B-Test WAKO (Wako Pure Chemical Industries, Ltd.). The amount of urinary glucose excretion in 4 hours per 1 body was calculated from urine volume and urinary glucose concentration.

SMILES | amount of excreted glucose (normal mice) | IC50 (human SGLT2; COS-7 cells expressing transiently human SGLT2, uptake of methyl-α-D-(U-14C)glucopyranoside, 37° C., 2 hours) | inhibitory activity in human SGLT2 (in words) (human SGLT2; assay for inhibitory effect on human SGLT2 activity) | Amount of Urinary Glucose Excretion (SD rats [1]; 0.1 mg/kg intravenous) | Amount of Urinary Glucose Excretion (SD rats [1]; 1 mg/kg intravenous) | Amount of Urinary Glucose Excretion (SD rats [1]; 10 mg/kg intravenous) | Death number (ICR mice [2]) | Death number (ICR mice [3]) | Amount of Urinary Glucose Excretion (SD rats [4]; 1 mg/kg subcutaneous) | Amount of Urinary Glucose Excretion (SD rats [4]; 3 mg/kg subcutaneous) | Amount of Urinary Glucose Excretion (SD rats [4]; 10 mg/kg subcutaneous)
CSc1ccc(Cc2c(C(F)(F)F)[nH][nH]c2=O)cc1 [WAY-123783] | increased | > 100 µM | extremely weak inhibitory activity |  |  |  |  |  |  |  | 
Cc1[nH]nc(O[C@@H]2O[C@H](CO)[C@@H](O)[C@H](O)[C@H]2O)c1Cc1ccc(OC(C)C)cc1 [Example 35, 3-(β-D-Glucopyranosyloxy)-4-[(4-isopropoxyphenyl)methyl]-5-methyl-1H-pyrazole] |  |  |  | 16 mg | 74 mg | 188 mg | 0/5 |  |  |  | 
Cc1[nH]nc(O[C@@H]2O[C@H](CO)[C@@H](O)[C@H](O)[C@H]2O)c1Cc1ccc(C(C)C)cc1 [Example 45, 3-(β-D-Glucopyranosyloxy)-4-[(4-isopropylphenyl)methyl]-5-methyl-1H-pyrazole] |  |  |  | 2 mg | 45 mg | 132 mg |  | 0/5 | 22.1 mg | 83.2 mg | 153.3 mg
